Test results as given in BindingDB's records for doi:10.7270/Q2N301S8 (D3R/Abbott, 2020).
pIC50: −log10 of the molar value.

Target: Beta-secretase 1 (Homo sapiens, UniProt P56817)
Assay: D3R2027
Source text: D3R2027

Chain of Beta-secretase 1 (P56817 whole entry): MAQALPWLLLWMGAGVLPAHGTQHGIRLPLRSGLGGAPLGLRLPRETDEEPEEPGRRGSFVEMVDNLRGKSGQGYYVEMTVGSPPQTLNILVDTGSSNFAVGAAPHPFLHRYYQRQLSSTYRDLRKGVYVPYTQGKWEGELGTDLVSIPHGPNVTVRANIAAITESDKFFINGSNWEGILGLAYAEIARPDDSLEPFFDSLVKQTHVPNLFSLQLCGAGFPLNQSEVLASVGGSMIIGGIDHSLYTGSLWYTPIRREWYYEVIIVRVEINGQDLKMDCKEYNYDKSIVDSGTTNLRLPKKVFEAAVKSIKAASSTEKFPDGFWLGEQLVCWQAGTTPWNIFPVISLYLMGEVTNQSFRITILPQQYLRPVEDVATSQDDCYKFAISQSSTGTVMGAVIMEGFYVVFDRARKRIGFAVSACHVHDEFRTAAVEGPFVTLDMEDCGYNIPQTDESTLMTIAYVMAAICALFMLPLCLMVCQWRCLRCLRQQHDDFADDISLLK

In order of rising pIC50:
1. C[C@@H]1CCCCCCCCC(=O)N(C)[C@@H](C)C(=O)N[C@H]([C@H](O)CO)C1 [BACE_143]  4.21
2. CC(C)c1ccnc(CNC[C@@H](O)[C@@H]2Cc3cccc(c3)OCCCCOc3cccc(c3)C(=O)N2C)c1 [BACE_139]  4.43
3. COCc1cc2cc(c1)C(=O)O[C@@H](CNC1(c3cccc(C(C)C)c3)CC1)[C@@H](N)Cc1cccc(c1)OCCCCN2 [BACE_144]  5.19
4. COc1cc2cc(c1)C1=N[C@@H](C[C@H](C)CCCCCCCN2)[C@H](CO)O1 [BACE_142]  5.35
5. CCCCNC(=O)[C@H](C)C[C@H](O)[C@@H]1Cc2ccc(O)c(c2)Cc2ccccc2OCCCCC(=O)N1 [BACE_158]  5.40
6. CCCNc1cc(COC)cc(C(=O)N[C@@H](Cc2cccc(OC)c2)[C@H](O)CNCc2cccc(C(C)C)c2)c1 [BACE_146]  5.51
7. CCc1cc(CNC[C@@H](O)[C@@H]2Cc3cccc(c3)OCCCCOc3cc(cc(C(=O)N(C)C)c3)C(=O)N2)ncn1 [BACE_141]  5.77
8. CCCNc1cc(COC)cc(C(=O)N[C@@H](Cc2cccc(OC)c2)[C@H](O)CNC2(c3cccc(C(C)C)c3)CC2)c1 [BACE_145]  5.92
9. CCCCNC(=O)[C@H](C)C[C@H](O)[C@@H]1C[C@H](C)CCCC[C@H](C)CCC(=O)N[C@@H](C)C(=O)N1 [BACE_147]  6.04
10. CCCCNC(=O)[C@H](C)C[C@H](O)[C@@H]1Cc2cccc(c2)OCCCCCC(=O)N[C@@H](C)C(=O)N1 [BACE_153]  6.16
11. CCCCNC(=O)[C@H](C)C[C@H](O)[C@@H]1C[C@H](C)CCCCCCCCS(=O)(=O)C[C@@H](C)C(=O)N1 [BACE_151]  6.25
12. CC(C)c1cccc(CNC[C@@H](O)[C@@H]2Cc3cccc(c3)CCCCOc3cncc(c3)C(=O)N2)c1 [BACE_137]  6.32
13. CCCCNC(=O)[C@H](C)C[C@H](O)[C@@H]1C[C@H](C)CCCCCCNc2cc(cc(OC)n2)C(=O)N1 [BACE_152]  6.34
14. CC(C)(NC[C@@H](O)[C@@H]1Cc2cccc(c2)OCCCCOc2cncc(c2)C(=O)N1)c1cccc(Br)c1 [BACE_138]  6.54
15. CCCCNC(=O)[C@H](C)C[C@H](O)[C@@H]1Cc2cccc(c2)CCCCNc2cc(cc(C)n2)C(=O)N1 [BACE_155]  6.62
16. CCCCNC(=O)[C@H](C)C[C@H](O)[C@@H]1Cc2cccc(c2)CCCCCNc2cc(cc(OC)n2)C(=O)N1 [BACE_154]  6.89
17. CCCCNC(=O)[C@H](C)C[C@H](O)[C@@H]1Cc2ccc(O)c(c2)Cc2ccccc2OCC(=O)N[C@@H](C)C(=O)N1 [BACE_157]  6.92
18. CCCCNC(=O)[C@H](C)C[C@H](O)[C@@H]1Cc2cccc(c2)OCCCCS(=O)(=O)C[C@@H](C)C(=O)N1 [BACE_156]  6.96
19. COCc1cc2cc(c1)C(=O)N[C@H]([C@H](O)CNC1(c3cccc(C(C)C)c3)CC1)Cc1cccc(c1)OCCCO2 [BACE_140]  7.11
20. CCCCNC(=O)[C@H](C)C[C@H](O)[C@@H]1C[C@H](C)CCCCC[C@H](C)CCC(=O)N(C)[C@@H](C)C(=O)N1 [BACE_148]  7.39
21. CCCCNC(=O)[C@H](C)C[C@H](O)[C@@H]1C[C@H](C)CCCCCCC[C@H](NC(=O)OC(C)(C)C)C(=O)N[C@@H](C)C(=O)N1 [BACE_149]  8.52
22. CCCCNC(=O)[C@H](C)C[C@H](O)[C@@H]1C[C@H](C)CCCCCCC[C@H](NC(=O)c2ccncc2)C(=O)N[C@@H](C)C(=O)N1 [BACE_150]  9.30
